# Measurements from ChEMBL document CHEMBL1201862, “PubChem BioAssay data set” (2004).
#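 Cultured in 96-well plates, cells were exposed to test compound for 48 hours across five concentrations. GI50: concentration for 50% inhibition of growth.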 Calls of active or inactive are those of the source. Cut-off read from the data, not from the text of the source: active = GI50 up to about 1.1 µM and inactive = higher.
# Assays:
# Assay in all cases: DTP human tumour cell line panel, 48 h
# [1] = test system: OVCAR-3
# [2] = test system: HCT-15
# [3] = test system: MOLT-4
# [4] = test system: MDA-MB-435
# [5] = test system: SK-MEL-28
# [6] = test system: EKVX
# [7] = test system: SN12C
# [8] = test system: Malme-3M
# [9] = test system: Hs-578T
# [10] = test system: LOX IMVI
# [11] = test system: HCT-116
# [12] = test system: NCI/ADR-RES
# [13] = test system: K562
# [14] = test system: UACC-62
# [15] = test system: UO-31
# [16] = test system: HOP-62
# [17] = test system: BT-549
# [18] = test system: OVCAR-5
# [19] = test system: HCC 2998
# [20] = test system: NCI-H460
SMILES,GI50 [1],GI50 [2],GI50 [3],GI50 [4],GI50 [5],GI50 [6],GI50 [7],GI50 [8],GI50 [9],GI50 [10],GI50 [11],GI50 [12],GI50 [13],GI50 [14],GI50 [15],GI50 [16],GI50 [17],GI50 [18],GI50 [19],GI50 [20]
CCC(=O)Nc1ccc(/N=C/c2cccc(Oc3ccccc3)c2)cc1,63.8 µM (inactive),> 100 µM,23.9 µM (inactive),47.3 µM (inactive),86.9 µM (inactive),65.5 µM (inactive),> 100 µM (inactive),> 100 µM (inactive),> 100 µM (inactive),29.6 µM (inactive),39.8 µM (inactive),42.3 µM (inactive),24.4 µM (inactive),95.7 µM (inactive),70.5 µM (inactive),37.2 µM (inactive),> 100 µM (inactive),,,
O=C(O)[C@@]1(Cc2ccc(O)cc2)C[C@@H]2Cc3ccccc3N2N1,> 100 µM (inactive),> 100 µM,> 100 µM (inactive),> 100 µM (inactive),> 100 µM (inactive),> 100 µM (inactive),> 100 µM (inactive),> 100 µM (inactive),> 100 µM (inactive),> 100 µM (inactive),> 100 µM (inactive),> 100 µM (inactive),,> 100 µM (inactive),> 100 µM (inactive),> 100 µM (inactive),> 100 µM (inactive),> 100 µM (inactive),,
Clc1nc2n(c1/C=C/c1cccs1)CCS2,23.5 µM (inactive),37 µM,11.3 µM (inactive),31.1 µM (inactive),34.8 µM (inactive),5.43 µM (inactive),31.4 µM (inactive),90.8 µM (inactive),30.1 µM (inactive),,25.4 µM (inactive),29.6 µM (inactive),47.2 µM (inactive),37.3 µM (inactive),31 µM (inactive),53.7 µM (inactive),26.6 µM (inactive),27.3 µM (inactive),35.5 µM (inactive),
Cc1ccccc1/N=N/c1ccc(/N=N/c2c(O)ccc3ccccc23)c(C)c1 [SCARLET RED],> 100 µM (inactive),> 100 µM,> 100 µM (inactive),> 100 µM (inactive),> 100 µM (inactive),> 100 µM (inactive),> 100 µM (inactive),> 100 µM (inactive),44.2 µM (inactive),> 100 µM (inactive),> 100 µM (inactive),> 100 µM (inactive),> 100 µM (inactive),> 100 µM (inactive),> 100 µM (inactive),38 µM (inactive),> 100 µM (inactive),> 100 µM (inactive),,
CN1C(=S)C(c2ccccc2)Sc2ccccc21 (stereo not drawn),48.2 µM (inactive),52.1 µM,7.29 µM (inactive),57 µM (inactive),> 100 µM (inactive),14 µM (inactive),> 100 µM (inactive),97.7 µM (inactive),35.6 µM (inactive),77.1 µM (inactive),38.8 µM (inactive),> 100 µM (inactive),20.7 µM (inactive),> 100 µM (inactive),35.6 µM (inactive),> 100 µM (inactive),42.7 µM (inactive),82 µM (inactive),,27.8 µM (inactive)
Nc1ccc(C(=O)O)cc1.Nc1nc(N)c2nc[nH]c2n1,19.1 µM (inactive),28.8 µM,41.4 µM (inactive),12.2 µM (inactive),33 µM (inactive),14.5 µM (inactive),39 µM (inactive),69.2 µM (inactive),> 100 µM (inactive),24.7 µM (inactive),15.2 µM (inactive),38.5 µM (inactive),20 µM (inactive),11.1 µM (inactive),11.3 µM (inactive),20.7 µM (inactive),78 µM (inactive),17.1 µM (inactive),,21.6 µM (inactive)
NCCN1C(=O)c2cc(Cl)c(Cl)cc2C1(O)c1ccc(Cl)cc1 (stereo not drawn),2.19 µM (inactive),2.4 µM,2.05 µM (inactive),1.68 µM (inactive),1.75 µM (inactive),2.23 µM (inactive),3.72 µM (inactive),1.71 µM (inactive),2.74 µM (inactive),1.7 µM (inactive),1.72 µM (inactive),2.42 µM (inactive),1.91 µM (inactive),1.79 µM (inactive),4.86 µM (inactive),1.85 µM (inactive),3.62 µM (inactive),3.33 µM (inactive),,1.79 µM (inactive)
Cc1ccc(S(=O)(=O)OC2=C/C(=N\c3onc(C)c3C)c3ccccc3C2=O)cc1,16.5 µM (inactive),29 µM,4.8 µM (inactive),16.1 µM (inactive),44.3 µM (inactive),> 100 µM (inactive),18.7 µM (inactive),17.9 µM (inactive),38.5 µM (inactive),18.6 µM (inactive),17.6 µM (inactive),25.2 µM (inactive),4.41 µM (inactive),20.6 µM (inactive),17 µM (inactive),23.6 µM (inactive),33.7 µM (inactive),20.3 µM (inactive),,32.8 µM (inactive)
COc1ccc(Nc2nc(NNC(=O)Cc3ccccc3)nc(NNC(=O)c3ccncc3)n2)cc1,> 10 µM (inactive),> 10 µM,> 10 µM (inactive),> 10 µM (inactive),> 10 µM (inactive),0.955 µM (active),> 10 µM (inactive),> 10 µM (inactive),,> 10 µM (inactive),> 10 µM (inactive),> 10 µM (inactive),> 10 µM (inactive),1.95 µM (inactive),> 10 µM (inactive),> 10 µM (inactive),> 10 µM (inactive),> 10 µM (inactive),> 10 µM (inactive),> 10 µM (inactive)
Cc1cccc(C(C)O)n1 (stereo not drawn),> 100 µM (inactive),> 100 µM,> 100 µM (inactive),,> 100 µM (inactive),> 100 µM (inactive),> 100 µM (inactive),24 µM (inactive),> 100 µM (inactive),,> 100 µM (inactive),> 100 µM (inactive),> 100 µM (inactive),> 100 µM (inactive),> 100 µM (inactive),> 100 µM (inactive),> 100 µM (inactive),> 100 µM (inactive),> 100 µM (inactive),> 100 µM (inactive)
O=C(N/N=C(\c1ccccc1)c1ccccn1)NC1CCCCC1,39.6 µM (inactive),22.9 µM,41.1 µM (inactive),> 100 µM (inactive),> 100 µM (inactive),41.8 µM (inactive),56.5 µM (inactive),38.6 µM (inactive),> 100 µM (inactive),19.4 µM (inactive),55.6 µM (inactive),,5.46 µM (inactive),38.2 µM (inactive),43.5 µM (inactive),23.4 µM (inactive),42.4 µM (inactive),> 100 µM (inactive),56.4 µM (inactive),48 µM (inactive)
COc1cc2c(/C=C3/C(=O)Nc4cccc(Cl)c43)c(Cl)[nH]c2cc1C,1.6 µM (inactive),1.95 µM,0.366 µM (active),1.57 µM (inactive),1.21 µM (inactive),,1.32 µM (inactive),,1.98 µM (inactive),1.8 µM (inactive),1.49 µM (inactive),1.65 µM (inactive),1.76 µM (inactive),1.95 µM (inactive),3.73 µM (inactive),2.15 µM (inactive),1.46 µM (inactive),4.02 µM (inactive),,1.72 µM (inactive)
O=C(O)C1C2C=CC(O2)C1C(=O)Nc1ncccn1 (stereo not drawn),> 100 µM (inactive),> 100 µM,> 100 µM (inactive),> 100 µM (inactive),> 100 µM (inactive),> 100 µM (inactive),> 100 µM (inactive),> 100 µM (inactive),> 100 µM (inactive),> 100 µM (inactive),> 100 µM (inactive),> 100 µM (inactive),97.9 µM (inactive),> 100 µM (inactive),> 100 µM (inactive),> 100 µM (inactive),> 100 µM (inactive),> 100 µM (inactive),,> 100 µM (inactive)
NC(CC1=CS(=O)(=O)c2ccc(Cl)cc21)C(=O)O (stereo not drawn),> 100 µM (inactive),> 100 µM,> 100 µM (inactive),> 100 µM (inactive),> 100 µM (inactive),> 100 µM (inactive),> 100 µM (inactive),76.7 µM (inactive),70.5 µM (inactive),> 100 µM (inactive),> 100 µM (inactive),> 100 µM (inactive),> 100 µM (inactive),> 100 µM (inactive),,> 100 µM (inactive),> 100 µM (inactive),> 100 µM (inactive),,89.9 µM (inactive)
CCOP(=O)(Nc1ccc(-c2ccc(N)cc2)cc1)OCC,> 100 µM (inactive),> 100 µM,> 100 µM (inactive),> 100 µM (inactive),> 100 µM (inactive),38.9 µM (inactive),,> 100 µM (inactive),43.6 µM (inactive),,99.8 µM (inactive),> 100 µM (inactive),> 100 µM (inactive),> 100 µM (inactive),> 100 µM (inactive),89.5 µM (inactive),> 100 µM (inactive),51.6 µM (inactive),> 100 µM (inactive),> 100 µM (inactive)
COc1ccc2c(n1)Sc1nc3ccccc3nc1N2,32.4 µM (inactive),24.9 µM,13.8 µM (inactive),55.1 µM (inactive),> 100 µM (inactive),12.6 µM (inactive),21 µM (inactive),29 µM (inactive),27.9 µM (inactive),31.4 µM (inactive),33.7 µM (inactive),24.7 µM (inactive),30.3 µM (inactive),7.16 µM (inactive),20 µM (inactive),16.1 µM (inactive),41.6 µM (inactive),56.1 µM (inactive),,63.1 µM (inactive)
